Assays:
[1] = target: Eng195 M2-N31 CD peptide (aa 18-60) (Influenza A virus, UniProt P06821, A27V/L43T); assay type: biochemical, Influenza A/England/195/2009 (H1N1)
[2] = target: Eng195 M2-S31 CD peptide (aa 18-60) (Influenza A virus, UniProt P06821, A27V/L43T/N31S); assay type: biochemical, Influenza A/England/195/2009 (H1N1)
[3] = tested on: E195 engineered to express M2-S31; assay type: cell-based, influenza A virus
[4] = target: Eng195 M2-N31 TM peptide (aa 18-46) (Influenza A virus, UniProt P06821, A27V/L43T); assay type: biochemical, Influenza A/England/195/2009 (H1N1)
Eng195 in MDCK culture = assay type: cell-based, influenza A virus
M2-N31 TM peptides = M2-N31 TM peptides (Influenza A virus, UniProt P06821, A27V/L43T); assay type: biochemical, Influenza A/England/195/2009 (H1N1)
[5] = target: M2-N31 CD peptide channels (Influenza A virus, UniProt P06821, A27V/L43T); assay type: biochemical, Influenza A/England/195/2009 (H1N1)
M2-S31N (H3N2 Udorn) = details: read-out: IC50 in two-electrode voltage clamp assay; cited from earlier work

In the case of `CN1CCN(C(=O)c2ccc3ccccc3c2)CC1` [B], the “effect on M2-N31 CD peptide channel activity” value [1] is reported as “not N31”, the “effect on M2-S31 CD peptide channel activity” value [2] is reported as “activity versus M2-S31” and the “antiviral effect versus E195 with M2-S31 (N31S)” value (from here on “antiviral effect versus E195”) [3] is reported as “neither B nor K exhibited antiviral effects”.

For `OC(CN1CCCC1)C12CC3CC(CC(C3)C1)C2` (stereo not shown) [G], the “effect on M2-N31 CD peptide channel activity” value [1] was “no activity” and the “effect on M2-S31 CD peptide channel activity” value [2] was “no activity”.

For `Nc1nc(-c2cc3c(cc2Cl)OCCO3)cs1` [L], the “effect on M2-N31 CD peptide channel activity” value [1] was “inactive” and the “effect on M2-S31 CD peptide channel activity” value [2] was “inactive”.

In the case of `CCN1CCC(NC2C3CC4CC(C3)CC2C4)CC1` (stereo not shown) [E], the “effect on M2-N31 CD peptide channel activity” value [1] is reported as “no activity” and the “effect on M2-S31 CD peptide channel activity” value [2] is reported as “no activity”.

For `Cc1c2ccccc2n2cc(-c3ccccc3)nc(C(C)C)c12` [DL7], the “% M2 activity (40 µM) N31 CD” value [1] was 19.5%, the “% M2 activity (40 µM) N31 TM” value [4] was 15.0% and the “% M2 activity (40 µM) S31 CD” value [2] was 31.3%.

With `Cc1ncc(C23CC4CC(CC(C4)C2)C3)[nH]1` [H] the “effect on M2-N31 CD peptide channel activity” value [1] was “inhibited” and the “effect on M2-S31 CD peptide channel activity” value [2] was “inhibited”.

With `Cc1ccc2nc(Oc3ccccc3)ccc2c1` [DP9] the “% M2 activity (40 µM) N31 CD” value [1] was 65.8%, the “% M2 activity (40 µM) N31 TM” value [4] was 100% and the “% M2 activity (40 µM) S31 CD” value [2] was 97.4%.

With `CC(N)C12CC3CC(CC(C3)C1)C2` (racemic) [rimantadine, (RS)-1-(1-adamantyl)ethanamine, reference compound] the “effect on M2-N31 CD peptide channel activity” value [1] was “only blocked activity of Eng195 M2-S31 peptides”, the “effect on M2-S31 CD peptide channel activity” value [2] was “blocked activity” and the “inhibition of channel activity of M2-WT (S31)” value [2] was 50%. The “inhibitor concentration under which virus could be expanded from plaques” value (shortened to “inhibitor concentration”) (Eng195 in MDCK culture) was 80 µM and the “time for cytopathic effects (CPE) to manifest on plaque expansion” value (shortened to “time for cytopathic effects (CPE)”) (Eng195 in MDCK culture) was no more than 24 h.

For `OCCNC12CC3CC(CC(C3)C1)C2` [J], the “effect on M2-N31 CD peptide channel activity” value [1] was “inhibited” and the “effect on M2-S31 CD peptide channel activity” value [2] was “inhibited”.

With `c1cc2nc(C34CC5CC(CC(C5)C3)C4)[nH]c2cn1` [D] the “effect on M2-N31 CD peptide channel activity” value [1] was “inhibited” and the “effect on M2-S31 CD peptide channel activity” value [2] was “inhibited”.

For `COc1ccccc1NC(=S)NC(=O)c1cc2ccccc2cc1OC` [L1.1], the “% M2 activity (40 µM) N31 CD” value [1] was 32.8%, the “% M2 activity (40 µM) N31 TM” value [4] was 22.0% and the “% M2 activity (40 µM) S31 CD” value [2] was 41.8%. The “antiviral effect versus E195” value [3] was “active”, the “inhibition of M2-N31 TM peptide channels in bilayer” value (M2-N31 TM peptides) was “inhibited TM peptides” and the “inhibitor concentration” value (Eng195 in MDCK culture) was no more than 20 µM. The “time for cytopathic effects (CPE)” value (Eng195 in MDCK culture) was “at least 48 h”.

In the case of `O=C(Nc1nnc[nH]1)c1cc2ccccc2o1` [K], the “effect on M2-N31 CD peptide channel activity” value [1] is reported as “not N31”, the “effect on M2-S31 CD peptide channel activity” value [2] is reported as “activity versus M2-S31” and the “antiviral effect versus E195” value [3] is reported as “neither B nor K exhibited antiviral effects”.

In the case of `c1csc(-c2cc(CNC34CC5CC(CC(C5)C3)C4)no2)c1` [M2WJ332, (3S,5S,7S)-N-{[5-(thiophen-2-yl)-1,2-oxazol-3-yl]methyl}tricycle[3.3.1.1~3,7~]decan-1-aminium, reference compound], the “% M2 activity (40 µM) N31 CD” value [1] is reported as 58.4%, the “effect on M2-N31 CD peptide channel activity” value [1] is reported as “blocked the activity” and the “inhibition of channel activity of the N31 CD peptide” value [1] is reported as ~ 40%. The “% M2 activity (40 µM) N31 TM” value [4] was 100%, the “effect on M2-N31 TM peptide channel activity” value [4] was “no TM-specific activity” and the “% M2 activity (40 µM) S31 CD” value [2] was 85%. For the same molecule, the “effect on CD peptide activity in bilayer” value [5] was “abrogate activity”, the “inhibition of M2-N31 CD peptide channels in bilayer” value [5] was “sensitive to nanomolar concentrations” and the “effect on TM peptide activity in bilayer” value (M2-N31 TM peptides) was “modest effect”. For the same molecule, the “inhibition of M2-N31 TM peptide channels in bilayer” value (M2-N31 TM peptides) was “retained channel activity”, the “inhibitor concentration” value (Eng195 in MDCK culture) was 80 µM and the “plaques retained by selected supernatants” value (Eng195 in MDCK culture) was ~ 30 % of DMSO control. The “time for cytopathic effects (CPE)” value (Eng195 in MDCK culture) was no more than 24 h and the IC50 (M2-S31N (H3N2 Udorn)) was 16 µM.

In the case of `CCCCCCCCCN1C[C@H](O)[C@@H](O)[C@H](O)[C@H]1CO` [NNDNJ, reference compound], the “effect on M2-N31 CD peptide channel activity” value [1] is reported as “blocked the activity” and the “effect on M2-S31 CD peptide channel activity” value [2] is reported as “blocked the activity”.
